Assay [1] has as its system A431 cells (human epidermoid carcinoma). Put plainly: In vitro tumor cell proliferation assay (Cell Titer-Glo luminescent cell viability), A431. The conditions noted are these: A-431, 72 h, 72 hours of drug exposure, ATP luminescence readout, read-out: IC50, anti-proliferative activity (inhibition of cell proliferation). It counts as cell-based. The essentials: (§1)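 A431 or BT474 cells were exposed 72 h at 37°C to serially diluted compounds (final 100 μM down to 64 pM, 0.1% DMSO). Viable cells were read by ATP luminescence (CellTiter-Glo) and IC50 values derived.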

Assay [2] has as its system BT474 (human breast carcinoma). Put plainly: In vitro tumor cell proliferation assay (Cell Titer-Glo luminescent cell viability), BT474. It counts as cell-based. Particulars: BT-474, 72 h, BT474 cells, 72 hours of drug exposure, ATP luminescence readout, read-out: IC50, anti-proliferative activity (inhibition of cell proliferation). The essentials: as §1

SMILES strings stand for the structures. Bounds are passed on as bounds.

`CN1CCN(C(=O)Cn2cc3c(n2)CCc2c-3sc3ncnc(Nc4ccc(OCc5cccc(F)c5)c(Cl)c4)c23)CC1` [Example 183, N-{3-chloro-4-[(3-fluorobenzyl)oxy]phenyl}-2-[2-(4-methylpiperazin-1-yl)-2-oxoethyl]-4,5-dihydro-2H-pyrimido[5′,4′:4,5]thieno[2,3-e]indazol-6-amine]: the IC50 is ≤ 5 µM in assay [1] and ≤ 1 µM in assay [2].
In the same order, the values of `CN(C)C(=O)Cn1cc2c(n1)CCc1c-2sc2ncnc(Nc3ccc(OCc4cccc(F)c4)c(Cl)c3)c12` [Example 184, 2-[6-({3-chloro-4-[(3-fluorobenzyl)oxy]phenyl}amino)-4,5-dihydro-2H-pyrimido[5′,4′:4,5]thieno[2,3-e]indazol-2-yl]-N,N-dimethylacetamide] are ≤ 5 µM and ≤ 1 µM.
In the same order, the values of `CCN1CCN(C(=O)Cn2cc3c(n2)CCc2c-3sc3ncnc(Nc4ccc(OCc5cccc(F)c5)c(Cl)c4)c23)CC1` [Example 185, N-{3-chloro-4-[(3-fluorobenzyl)oxy]phenyl}-2-[2-(4-ethylpiperazin-1-yl)-2-oxoethyl]-4,5-dihydro-2H-pyrimido[5′,4′:4,5]thieno[2,3-e]indazol-6-amine] are ≤ 5 µM and ≤ 1 µM.
In the same order, the values of `COCCN1CCN(C(=O)Cn2cc3c(n2)CCc2c-3sc3ncnc(Nc4ccc(OCc5cccc(F)c5)c(Cl)c4)c23)CC1` [Example 186, N-{3-chloro-4-[(3-fluorobenzyl)oxy]phenyl}-2-{2-[4-(2-methoxyethyl)piperazin-1-yl]-2-oxoethyl}-4,5-dihydro-2H-pyrimido[5′,4′:4,5]thieno[2,3-e]indazol-6-amine] are ≤ 5 µM and ≤ 1 µM.
Turning to `O=C(Cn1cc2c(n1)CCc1c-2sc2ncnc(Nc3ccc(OCc4cccc(F)c4)c(Cl)c3)c12)N(CCO)CCO` [Example 187, 2-[6-({3-chloro-4-[(3-fluorobenzyl)oxy]phenyl}amino)-4,5-dihydro-2H-pyrimido[5′,4′:4,5]thieno[2,3-e]indazol-2-yl]-N,N-bis(2-hydroxyethyl)acetamide], the IC50 is ≤ 50 µM in assay [1] and ≤ 1 µM in assay [2].
In the same order, the values of `CNC(=O)Cn1cc2c(n1)CCc1c-2sc2ncnc(Nc3ccc(OCc4cccc(F)c4)c(Cl)c3)c12` [Example 188, 2-[6-({3-chloro-4-[(3-fluorobenzyl)oxy]phenyl}amino)-4,5-dihydro-2H-pyrimido[5′,4′:4,5]thieno[2,3-e]indazol-2-yl]-N-methylacetamide] are ≤ 50 µM and ≤ 1 µM.
The like results for `O=C(Cn1cc2c(n1)CCc1c-2sc2ncnc(Nc3ccc(OCc4cccc(F)c4)c(Cl)c3)c12)NCCN1CCOCC1` [Example 189, 2-[6-({3-chloro-4-[(3-fluorobenzyl)oxy]phenyl}amino)-4,5-dihydro-2H-pyrimido[5′,4′:4,5]thieno[2,3-e]indazol-2-yl]-N-(2-morpholin-4-ylethyl)acetamide] were, in that order, ≤ 50 µM and ≤ 1 µM.
In the same order, the values of `CCOC(=O)Cn1ncc2c1CCc1c-2sc2ncnc(Nc3ccc(OCc4cccc(F)c4)c(Cl)c3)c12` [Example 190, ethyl [6-({3-chloro-4-[(3-fluorobenzyl)oxy]phenyl}amino)-4,5-dihydro-3H-pyrimido[5′,4′:4,5]thieno[2,3-e]indazol-3-yl]acetate] are ≤ 50 µM and ≤ 1 µM.
For `O=C(O)Cn1ncc2c1CCc1c-2sc2ncnc(Nc3ccc(OCc4cccc(F)c4)c(Cl)c3)c12` [Example 191, [6-({3-chloro-4-[(3-fluorobenzyl)oxy]phenyl}amino)-4,5-dihydro-3H-pyrimido[5′,4′:4,5]thieno[2,3-e]indazol-3-yl]acetic acid], the IC50 in assay [1] and in assay [2] was ≤ 50 µM in each case.
